{"source": "patent US20210292330A1", "about": "“PYRROLIDINE-FUSED HETEROCYCLES” (Erasca, Inc., priority 2020, published 2021)", "target": "T1, KRAS 4B G12C protein (Homo sapiens, UniProt P01116, G12C)", "T1 construct": "This protein contained 188 amino acids in total, including an N-terminal 6-Histidine tag; made in house; host or cells: E. coli BL21", "experiment": "In vitro covalent adduct formation (CAF) assay by LC-MS", "assay_type": "binding", "settings": "compound 10 μM, protein 5 μM, 22° C., percentage of protein bound by the compound", "outline": "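Percent of protein covalently modified was quantified from intact-mass LC-MS ratios of free versus adducted protein, adducts within 1 Da of expected mass. Reactions: 10 μM compound, 5 μM His-TEV-KRAS 4B G12C (1-169) in TBS pH 7.4, 4% DMSO, 22° C., one hour, run in duplicate.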", "data": [{"smiles": "C=C(F)C(=O)N1CCN(c2nc(OC[C@@H]3CCCN3C)nc3c2CN(Cc2cc(N)ncc2Cl)C3)C[C@@H]1CC#N", "note": "[1-332]", "values": [{"measurement": "CAF (10 minutes/60 minutes) at 10 micromolar: 10 minutes", "result": 6, "unit": "%"}, {"measurement": "CAF (10 minutes/60 minutes) at 10 micromolar: 60 minutes", "result": 48, "unit": "%"}]}, {"smiles": "C=CC(=O)N1CCN(c2nc(OC[C@@H]3CCCN3C)nc3c2CN(Cc2c(C)cccc2OC)C3)C[C@@H]1CC#N", "note": "[1-59]", "values": [{"measurement": "CAF (10 minutes/60 minutes) at 10 micromolar: 10 minutes", "result": 46, "unit": "%"}, {"measurement": "CAF (10 minutes/60 minutes) at 10 micromolar: 60 minutes", "result": 98, "unit": "%"}]}, {"smiles": "C=CC(=O)N1CCN(c2nc(OC[C@@H]3CCCN3C(C)(C)C)nc3c2CN(C2CCc4ccccc42)C3)C[C@@H]1CC#N", "note": "(stereo partly drawn) [1-202]", "values": [{"measurement": "CAF (10 minutes/60 minutes) at 10 micromolar: 10 minutes", "result": 82, "unit": "%"}, {"measurement": "CAF (10 minutes/60 minutes) at 10 micromolar: 60 minutes", "result": 89, "unit": "%"}]}, {"smiles": "C=CC(=O)N1CCN(c2nc(OC[C@@H]3CCCN3C)nc3c2CN(Cc2cc(OC)ccc2C)C3)C[C@@H]1CC#N", "note": "[1-6]", "values": [{"measurement": "CAF (10 minutes/60 minutes) at 10 micromolar: 10 minutes", "result": 65, "unit": "%"}, {"measurement": "CAF (10 minutes/60 minutes) at 10 micromolar: 60 minutes", "result": 93, "unit": "%"}]}, {"smiles": "C=CC(=O)N1CCN(c2nc(OC[C@@H]3CCCN3C)nc3c2CN(Cc2c(Cl)cccc2OC)C3)C[C@@H]1CO", "note": "[1-107]", "values": [{"measurement": "CAF (10 minutes/60 minutes) at 10 micromolar: 10 minutes", "result": 0, "unit": "%"}, {"measurement": "CAF (10 minutes/60 minutes) at 10 micromolar: 60 minutes", "result": 3, "unit": "%"}]}, {"smiles": "C=CC(=O)N1CCN(c2nc(OC[C@@H]3CCCN3C)nc3c2CN(C2CCc4ccccc42)C3)C[C@@H]1CNC(C)=O", "note": "(stereo partly drawn) [1-217]", "values": [{"measurement": "CAF (10 minutes/60 minutes) at 10 micromolar: 10 minutes", "result": 0, "unit": "%/ 0%"}, {"measurement": "CAF (10 minutes/60 minutes) at 10 micromolar: 60 minutes", "result": 0, "unit": "%/ 0%"}]}, {"smiles": "C=CC(=O)N1CCN(c2nc(OC[C@@H]3CCCN3C)nc3c2CN(Cc2c(Cl)ccc4ccccc24)C3)C[C@@H]1CC#N", "note": "[1-236]", "values": [{"measurement": "CAF (10 minutes/60 minutes) at 10 micromolar: 10 minutes", "result": 94, "unit": "%"}, {"measurement": "CAF (10 minutes/60 minutes) at 10 micromolar: 60 minutes", "result": 95, "unit": "%"}]}, {"smiles": "C=CC(=O)N1CCN(c2nc(OC[C@@H]3CCCN3C(C)C)nc3c2CN(C2CCc4ccccc42)C3)C[C@@H]1CC#N", "note": "(stereo partly drawn) [1-176]", "values": [{"measurement": "CAF (10 minutes/60 minutes) at 10 micromolar: 10 minutes", "result": 88, "unit": "%"}, {"measurement": "CAF (10 minutes/60 minutes) at 10 micromolar: 60 minutes", "result": 94, "unit": "%"}]}, {"smiles": "C=C(F)C(=O)N1CCN(c2nc(OC[C@@H]3CCCN3C)nc3c2CN(Cc2c(Cl)ccc(O)c2Cl)C3)C[C@@H]1CC#N", "note": "[1-322]", "values": [{"measurement": "CAF (10 minutes/60 minutes) at 10 micromolar: 10 minutes", "result": 76, "unit": "%"}, {"measurement": "CAF (10 minutes/60 minutes) at 10 micromolar: 60 minutes", "result": 94, "unit": "%"}]}, {"smiles": "C=CC(=O)N1CCN(c2nc(OC[C@@H]3CCCN3C)nc3c2CN(Cc2cc(C(F)F)ccc2C)C3)[C@@H](C)C1", "note": "[1-64]", "values": [{"measurement": "CAF (10 minutes/60 minutes) at 10 micromolar: 10 minutes", "result": 0, "unit": "%/ 0%"}, {"measurement": "CAF (10 minutes/60 minutes) at 10 micromolar: 60 minutes", "result": 0, "unit": "%/ 0%"}]}, {"smiles": "C=CC(=O)N1CC2CC(=O)CC(C1)N2c1nc(O[C@@H]2CN(C)C[C@H]2OC)nc2c1CN(C1CCc3ccccc31)C2", "note": "(stereo partly drawn) [1-252]", "values": [{"measurement": "CAF (10 minutes/60 minutes) at 10 micromolar: 10 minutes", "result": 0, "unit": "%/ 0%"}, {"measurement": "CAF (10 minutes/60 minutes) at 10 micromolar: 60 minutes", "result": 0, "unit": "%/ 0%"}]}, {"smiles": "C=CC(=O)N1CCN(c2nc(OC[C@@H]3CCCN3C)nc3c2CN(Cc2cc(O)ccc2Cl)C3)C[C@@H]1CC#N", "note": "[1-26, 2-((S)-1-acryloyl-4-(6-(2-chloro-5-hydroxybenzyl)-2-(((S)-1-methylpyrrolidin-2-yl)methoxy)-6,7-dihydro-5H-pyrrolo[3,4-d]pyrimidin-4-yl)piperazin-2-yl)acetonitrile]", "values": [{"measurement": "CAF (10 minutes/60 minutes) at 10 micromolar: 10 minutes", "result": 74, "unit": "%/ 74%"}, {"measurement": "CAF (10 minutes/60 minutes) at 10 micromolar: 60 minutes", "result": 74, "unit": "%/ 74%"}]}]}
